The term melting point denotes the temperature, or range, at which the solid turns liquid.

For `Cc1cc(=O)c(-c2ccc(C#N)cc2)c(C)[nH]1`, the melting point was in the range of 192 to 195 °C. To `COc1cccc(Cn2c(=O)c3c(Cl)cc(Cl)cc3n(Cc3ccccc3)c2=O)c1` belongs 106 to 108 °C. `CCCc1cc(=O)[nH]c(NC(=N)Nc2ccccc2)n1`: the melting point was determined as 196 °C. To `O=Cc1c(O)cc(O)cc1CCl` belongs 164 to 166 °C. The figure for `N#Cc1cnn2c1N(C(=O)CN1CCN(C(=O)Nc3ccccc3)CC1)CC=C2c1cccc(C(F)(F)F)c1` is 184 to 187 °C; for `CC1(C)OC(=O)[C@@H](CC=O)O1` it is 37 to 38 °C. On to `CCCc1c(OCCCOc2ccc(C(=O)CCCCC(=O)O)cc2F)ccc(C(C)=O)c1O`, for which the melting point lay within 106 to 107 °C. To `Cc1sc(N)c(C(=O)c2ccccc2)c1C` belongs 140 to 141 °C; to `c1cc(-c2cnc(-c3cccc(-c4cnco4)n3)o2)cc(-c2cnc(-c3cccc(-c4cnco4)n3)o2)c1`, more than 250 °C. `O=C1C2CC(c3ccc([N+](=O)[O-])cc3)(C2)C(=O)N1CC1CCCCC1`: the melting point lay in the range of 191 to 194 °C. For `c1ccc(C2OC3(CCNCC3)N3CCCCC23)cc1` (configuration not stated), the melting point was in the range of 169 to 171 °C. `Cc1oc(-c2ccco2)nc1COc1ccc(CCl)cc1Cl` gave a melting point of 103 to 104 °C. The figure for `CCOC(=O)C(=CNNc1c(Cl)cc(C(F)(F)F)cc1Cl)C(C)=O` is 75 to 76 °C; for `Fc1ccc(C(OP2OCCO2)(c2ccc(F)cc2)c2ccccc2F)cc1` it is 163 to 164 °C; for `CC(=O)N(O)C(C)c1csc2ccccc12` (configuration not stated) it is 123 to 125 °C. `CCCCN(C=NC1=C(C(=O)OCC)C(c2ccccc2Cl)C(C(=O)OCC)=C(C)N1)CCCC` (configuration not stated): the melting point was found to be 126 °C.

`CC(C)N(CCCCS(=O)(=O)CC(=O)O)c1cnc(-c2ccccc2)c(-c2ccccc2)n1` had a melting point of 183 to 185 °C. The compound `c1cncc(CN2CCN(CCCCc3c[nH]c4ccc(-n5cnnc5)cc34)CC2)c1` gave a melting point of 110 to 112 °C.

The compound `CC(C)OC1CCCC(C2NC(=O)C2C(C)O[Si](C)(C)C(C)(C)C)C1O` (configuration not stated) displayed a melting point of 121 to 123 °C. As for `O=C1C(c2ccccc2)=C(c2ccccc2)C(=O)N1Cc1ccccc1`, the melting point was in the range of 123 to 124 °C. Compound `COC(=O)C1Cc2c([nH]c3ccccc23)C(C)N1C(=S)SC` (configuration not stated) returned a melting point of 229 to 230 °C.

The compound `COc1ccc(-c2sc(NC(C)=O)nc2C)cc1S(N)(=O)=O` came in with a melting point of 342 °C.

Compound `N#Cc1c(I)c(C(=O)NCCO)c(I)c(C(=O)NCCO)c1I` yielded a melting point of 300 °C. The figure for `COCCCNc1cc(C(Sc2ccc(Cl)cc2)c2cc(F)ccc2F)c(Cl)cn1` (configuration not stated) is 146 to 148 °C. `CCCN(CCC)C(=O)COC1Cc2cccc(OCC(O)CNC(C)(C)C)c2CC1OCC(=O)N(CCC)CCC` (configuration not stated) yielded a melting point of 124 to 134 °C. On to `CC(=NOCC1CC1)c1cc(Cl)ccc1NS(=O)(=O)C(F)(F)F`, for which the melting point is 53 to 54 °C. The figure for `CCOCCCN(C)Cc1ccc(NC(=O)C2=Cc3cc(-c4ccc(OCC)cc4)ccc3N(C)CC2)cc1` is 129 to 131 °C. To `CCC1(c2cn(Cc3ccc(Cl)cc3)cn2)Cc2ccccc2C1=O` (configuration not stated) belongs 150 to 154 °C.

For `CCOC(=O)C(NC(=O)OCc1ccccc1)C(=O)O` (configuration not stated), the melting point is 65 to 70 °C. The figure for `Cc1c(CN2CCc3c(c4cccc(F)c4n3C)C2=O)ncn1C` is 174 to 175 °C.

`O=c1ccc(Oc2ccc3c(c2)CCC2(CCNCC2)O3)n[nH]1` registered a melting point of 233 to 235 °C. To `CCCC[C@]1(CC)CS(=O)(=O)c2cc(OC)c(Br)cc2[C@@H](c2ccccc2)N1` belongs 132 to 134 °C. The figure for `COCOCCCOn1cnc2cnc(NC=O)nc21` is 115 to 116 °C; for `Cc1nnc2n1-c1ccc(C#Cc3cccs3)cc1C(c1ccccc1Cl)=NC2` it is 160 to 163 °C; for `CC(C)(C)n1c(=O)c2c(-c3nc(C4CC4)no3)ncn2c2ccccc21` it is 182 to 184 °C. The figure for `CCn1c(=O)n(C2CCN(C(C)(C)CCCN3C(=O)c4ccccc4S3(=O)=O)CC2)c2ccccc21` is 182 to 185 °C; for `O=C(O)CSCc1cccc(NC(=O)c2cc(-c3ccccc3)oc2C(F)(F)F)c1` it is 178 to 182 °C; for `C=CCCC(C(=O)O)(C(=O)O)C(F)F` it is 80 to 81 °C. Compound `COc1c(OC)c(OC)c2c(=O)cc(-c3ccc(OCc4ccccc4)cc3)oc2c1OC` showed a melting point of 132 to 134 °C. The figure for `CC(C)C[C@H](NC(=O)c1cccs1)C(=O)N[C@@H](C(C)C)[C@@H](O)c1c(-c2ccccc2)c1=O` is 171 to 172 °C. To `O=c1cc(Cl)c2cc(OC(F)(F)F)ccc2o1` belongs 85 to 87 °C; to `CN(C)CCOc1ccc2[nH]c(C(=O)N3CC(CCl)c4c3cc([N+](=O)[O-])c3cc([N+](=O)[O-])ccc43)cc2c1` (configuration not stated), 263 to 264 °C. To `CCC1(c2cn(-c3c(Cl)cc(C(F)(F)F)cc3Cl)nc2C#N)CC1` belongs 118 to 119 °C; to `CN(C)Cc1ccc(CSCCNC2=NS(=O)(=O)C(C(=O)N(C)C)=C2N)o1`, 101 to 104 °C. `N=C(OCC1CC1)N1CCC(c2nsc3ccccc23)CC1` showed a melting point of 85 to 87 °C. `O=C1C(=NOCCO)Oc2ccccc21` registered a melting point of 110 to 111 °C. To `O=C1CCC2=C1C(c1ccc(Cl)c(F)c1)C1=C(CCS1)N2` (configuration not stated) belongs more than 260 °C. Turning to `CC(C)C[C@H](NC(=O)N1CCCCCC1)C(=O)N[C@H](Cc1ccc(OCc2ccccc2)cc1)C(=O)OC(C)(C)C`, the melting point was 38 to 40 °C. In the case of `CCN(CCO)CCCNc1ncc2cc(-c3c(Cl)cccc3Cl)c(N)nc2n1`, the melting point is 201 to 204 °C. To `CCCOCCOc1ccc(Oc2ccc3c(c2)C=C(C(=O)Nc2ccc(CN(C)C4CCOCC4)cc2)CCS3(=O)=O)cc1OCC` belongs 159 to 160 °C; to `O=C(NCCCNc1c([N+](=O)[O-])cnc2ccccc12)c1ccccc1`, 209 to 211 °C; to `C[C@H]1CCCC(C)(C)[C@@H]1C(=O)c1ccoc1`, 114 to 116 °C. In turn, `Cc1nc(N2CCN(Cc3ccc(C(F)(F)F)o3)C2=O)sc1C(=O)NCc1ccccc1` gave a melting point of 143 to 145 °C. The figure for `O=C(O)c1ccc2[nH]c3c(c2c1)CCCCCC3` is 240 to 241 °C; for `CCn1ncc2c(NCc3ccco3)c3ccccc3nc21` it is 156 to 158 °C.

Consider `CCCc1nn(-c2ccc(C(F)(F)F)cn2)cc1CCCOc1cccc(C(C)(C)C(=O)O)c1`, for which the melting point lay within 82 to 83 °C.

For `COC(=O)c1ccc(C(C(N)=O)C(C)c2cc(Cl)ccc2N2CCCC(C)C2)cc1` (configuration not stated), the melting point lay within 160 to 162 °C. The figure for `Cn1cc(C(=O)c2cnc[nH]2)cc1C(=O)c1ccc(Cl)cc1` is 198 to 200 °C. `O=C1SC[C@@H](CO)N1Cc1ccccc1` showed a melting point of 87 to 90 °C. In the case of `COc1cc(N2CCCN(C3CCN(C)CC3)CC2)ccc1Nc1ncc2ccc(-c3ccccc3OC)n2n1`, the melting point fell in the range of 71 to 80 °C. As for `C=CCOC(=O)c1ccc(N=Cc2ccc3c(c2Cl)C(C)(C)CCC3(C)C)cc1`, the melting point is 80 °C. The figure for `Cc1ccc(CC2CCN(C(=O)CNc3ccc4[nH]c(=O)oc4c3)CC2)cc1` is 212 to 215 °C. The figure for `OCC(CC(F)(F)F)Nc1nc(-c2ccc(Br)cc2)cs1` (configuration not stated) is 120 to 121 °C; for `CC(=O)Nc1cc(/C=C/C(=O)NCC(=O)N(C)c2ccc(Cl)c(COc3cccc4ccc(C)nc34)c2Cl)ccn1` it is 115 to 131 °C; for `CNc1c(N)cnn1CCO` it is 138 to 140 °C. The figure for `CC(=O)NC[C@H]1CN(c2ccc(C3C=CS(=O)(=O)CC3)cc2)C(=O)O1` (some centres not stated) is 187 to 189 °C; for `O=C(OCc1ccccc1)C(C(=O)OCc1ccccc1)n1cccc1C(=O)C(Cl)(Cl)Cl` it is 74 to 76 °C.

Take `CN(C)S(=O)(=O)N1CCN(c2ccnc(CO)n2)CC1`: the melting point fell in the range of 148 to 149 °C. On to `O=C(NCC1Cc2c(Cl)cc3c(c2O1)CCC3)OCc1ccccc1` (configuration not stated), for which the melting point fell in the range of 127 to 130 °C. The figure for `O=C(CC(=O)c1cccn1Cc1ccc(F)cc1)c1ccncn1` is 128 to 129 °C; for `CS(=O)(=O)c1ccc(C2=C(c3ccccc3)C(=O)c3ccccc32)cc1` it is 167 to 168 °C. The figure for `COC1=CC(=O)C(OC)=C(CCCOCCC2=C(OC)C(=O)C=C(OC)C2=O)C1=O` is 129 to 130 °C; for `COc1cccc2c(Sc3nc(C)c(CC(=O)O)s3)cc(C(=O)O)nc12` it is 176 to 179 °C; for `CC(=O)N1CCCc2ccc(C(C)NC(=O)C=Cc3ccccc3)cc21` (configuration not stated) it is 65 to 68 °C. The figure for `CCNS(=O)(=O)c1cccc(NC(=O)c2cnn3c(C(F)(F)F)cc(-c4ccc(C(F)(F)F)cc4)nc23)c1` is 207 °C. `Cc1c(NC(=O)c2ccc(OCc3ccc(Cl)cc3)cc2)ccc2cc(CN3CCCC3)cnc12` yielded a melting point of 167 to 168 °C. To `CCOC(=O)C(NC(=O)CNC=O)C(=O)OCC` belongs 95 to 96 °C; to `COC(=O)CCCCC(C)C1CCC2C3CCC4CC(OC=O)CCC4(C)C3CC(OC=O)C12C` (configuration not stated), 67 to 72 °C. The figure for `COc1ccc2[nH]c(=O)cc(CCCl)c2c1` is 231 to 232 °C. To `CCOC(=O)Cc1cccc(N)c1` belongs 135 °C; to `CCCCCCCCCCOc1ccc(-c2ccc(OCCCCCCCCCC)c(OCCCCCCCCCC)c2)cc1OCCCCCCCCCC`, 85 to 86 °C. Consider `CNc1cccc(S(=O)(=O)c2ccc(N)cc2)c1`, for which the melting point was 125 to 126 °C. The figure for `CCCCSc1nc(N)c(C#N)s1` is 115 to 117 °C; for `C[C@@H](NC(=O)[C@H](Cc1ccc(OC(C)(C)C)cc1)NC(=O)OC(C)(C)C)C(=O)O` it is 186 to 187 °C.

For `CCN1C[C@@H](C(=O)OC(C)(C)C)N(C(=O)OCc2ccccc2)C1=O`, the melting point was found to be 97 °C. Take `NCCOCn1cnc2c(N)ncnc21`: the melting point fell in the range of 170 to 171 °C. To `O=c1c(CCCc2ccccn2)cc2cccnc2n1-c1cccc([N+](=O)[O-])c1` belongs 201 to 202 °C.

(Values after a melting point compilation (Tetko et al.; mined from patent text by program, amines drawn as free bases though some values may be those of a salt).)
